Measured values from patent US20150132788A1, “ESTABLISHING THE VIABILITY OF BIOLOGICAL SAMPLES” (Ovamed GmbH, priority 2012, published 2015).

Legend:
[1] = tested on: sensitive cells (for example, PC12); settings: cited from earlier work
[2] = cited from earlier work
[3] = cited from earlier work; remark: listed apart in the source
eggs of Trichuris suis = assay: Dyeing of Trichuris suis eggs (TSO) with ageladine A, fluorescence microscopy with UV excitation
Protocol: Embryonated eggs of Trichuris suis (TSO) according to specification of Ovamed GmbH. The nematode eggs are stored in the refrigerator at from 4 to 8° C. in a phosphate buffer at pH 5 with addition of potassium sorbate. For the tests, the TSO were washed several times in 1×DPBS (re-buffering) and adjusted to a concentration of 1000 TSO/ml.
Ageladine stock solution: 10 mM in MeOH (90%); 1 μl of ageladine was combined with 1000 μl of TSO suspension (see 2.5) in 15 ml tubes. The contents were mixed by gentle shaking and incubated for 10 minutes at ambient temperature in the dark.
The ISO were washed three times in DPBS after being dyed with Ageladine A (see 2.6.2). 10 μl of the samples were placed on object carriers with recesses and covered with glass covers. The object carriers were observed under the microscope Leica SP5 MP with and without UV excitation.

Nc1nc2ccnc(-c3cc(Br)c(Br)[nH]3)c2[nH]1 [ageladine A]
toxicity ([1]; sensitive cells (for example, PC12), long incubation): not toxic
cell toxicity after a long incubation time ([1]; whipworm eggs, long incubation time): not cell-toxic
membrane permeability in the charged (protonated, acidic medium) state ([2]; charged state): membrane-impermeable
membrane permeability [2]: high level of membrane-permeability
membrane permeability in the uncharged (alkaline medium) state ([2]; uncharged state): very rapidly crosses many cell membranes
pH of greatest fluorescence ([3]; fluorescence decreases as the pH value increases): ~4 pH
stability of the dyeing ([3]; intensive dyes in cells, tissues, organisms): stable over hours and days
tendency to fade ([3]; relatively long incubation times): scarcely has any tendency to fade
absorption of the dye by eggs of the whipworm (eggs of Trichuris suis; eggs normally absorb dyes very poorly): very rapid
proportion of TSO exhibiting fluorescence after incubation with ageladine A (eggs of Trichuris suis; excitation 370 nm, detection 410-480 nm, 10 minutes incubation at ambient temperature): a small percentage
correlation between eggs marked as defective by morphological criteria and fluorescing eggs (eggs of Trichuris suis; optical blind test, fourteen TSO, UV excitation): high level of correlation
fluorescence in degenerated eggs of Trichuris suis (eggs of Trichuris suis; ultraviolet excitation, multi-photon microscopy): fluoresces
